Results taken from ChEMBL document CHEMBL1158776, “Pseudoguanolide sesquiterpene lactones from Vernoniopsis caudata and their in vitro antiplasmodial activities” (J Nat Prod, 2005).

Legend:
Plasmodium falciparum = test: Antiplasmodial activity against chloroquine-resistant Plasmodium falciparum FCB1 in human blood as [G-3H]hypoxanthine uptake; type: functional, organism-based
KB = test: Cytotoxicity against human KB cells after 72 hrs; type: functional, cell-based

| SMILES | IC50 (Plasmodium falciparum) | IC50 (KB) |
| --- | --- | --- |
| C=C1C(=O)O[C@@H]2C[C@@H](C)[C@@H]3C=CC(=O)[C@@]3(C)[C@@H](OC(=O)C(=C)[C@@H](C)O)[C@H]12 | 1000 nM | 330 nM |
| C=C(C(=O)O[C@H]1[C@H]2[C@@H](C[C@@H](C)[C@@H]3C=CC(=O)[C@]31C)OC(=O)[C@@H]2C)[C@@H](C)O | 410 nM | 50 nM |
| C=C1C(=O)O[C@@H]2C[C@@H](C)[C@@H]3C=CC(=O)[C@@]3(C)[C@@H](OC(=O)/C(=C\C)CO)[C@H]12 | 190 nM | 930 nM |
| COc1cccc2c1C(=O)c1c(O)c3c(c(O)c1C2=O)C[C@@](O)(C(=O)CO)C[C@@H]3O[C@H]1C[C@H](N)[C@H](O)[C@H](C)O1 [DOXORUBICIN] | – | 270 nM |
